17 compounds from patent EP4471028A1, “HYDRAZINO GROUP-CONTAINING COMPOUND” (priority 2022, dated 2023) can be followed below.

Series [1] in a line: In vitro liver microsomal metabolic stability. The note with it: human, liver microsomes, pH 7.4; 0.5 mg/mL microsomes, NADPH, 37 °C, 60 min; read-out: Human liver microsome Residual rate at 60 min%. The series is classed as in vitro ADME. The method, then:
Liver microsome incubation samples were prepared by mixing a PBS buffer (pH 7.4), a liver microsome solution (0.5 mg/mL; species: human, monkey, dog, rat, and mouse), a test compound, and an NADPH + MgCl2 solution and incubated at 37 °C and 300 rpm for 1 h. Zero-hour samples were prepared by mixing a PBS buffer (pH 7.4), a liver microsome solution (0.5 mg/mL), and a test compound. An acetonitrile solution containing an internal standard was added to the samples, and supernatants were prepared by protein precipitation, diluted, and then assayed by LC/MS/MS.
Background: Liver microsomes are a subcellular fraction often used to study metabolism.

Series [2] in a line: In vivo pharmacokinetics (Table 4). The note with it: plasma; for bioavailability: po, IG 10mg/kg versus IV 1mg/kg, read-out: Absolute F; for clearance: IV, 1mg/kg, read-out: CLz (converted).

As for `CC(C)n1c(=O)n(N)c2cnc3cc(F)c(-c4ccc(OCCCN5CCCCC5)nc4)cc3c21` [Example 2], the remaining at 1 h in series [1] was found to be 64.4%. Besides, in series [2], the bioavailability is 79.7% and the clearance is 31 mL/min/kg.

In the case of `Nn1c(=O)n(C2CCOCC2)c2c3cc(-c4ccc(OCCCN5CCCCC5)nc4)c(F)cc3ncc21` [Example 15], the remaining at 1 h in series [1] worked out at 58.4%.

On to `COc1cc2ncc3c(c2cc1-c1ccc(OCCCN2CCCC2)nc1)n(C(C)C)c(=O)n3N` [Example 17], for which, in series [1], the remaining at 1 h was determined as 85.2%.

With `CC(C)n1c(=O)n(N)c2nnc3cc(F)c(-c4ccc(OCCCN5CCCCC5)nc4)cc3c21` [Example 32], in series [1], the remaining at 1 h stood at 95.8%.

Consider `COc1cc2ncc3c(c2cc1-c1ccc(OCCCN2CCCC2)nc1)n(C1CC1)c(=O)n3N` [Example 11], for which the remaining at 1 h in series [1] was found to be 58.6%.

For `CC(C)n1c(=O)n(N)c2cnc3cc(F)c(-c4ccc(OCC5CC(N6CCCC6)C5)nc4)cc3c21` (centres unmarked) [Example 22], the remaining at 1 h in series [1] amounted to 73.3%.

In the case of `CC(C)n1c(=O)n(N)c2cnc3cc(F)c(-c4ccc(OCCCN5CC6(CCC6)C5)nc4)cc3c21` [Example 29], the remaining at 1 h in series [1] came to 64.9%. In addition, in series [2], the bioavailability was determined as 85.9% and the clearance was 5.27 mL/min/kg.

Turning to `COC1CCC(n2c(=O)n(N)c3cnc4cc(F)c(-c5ccc(OCCCN6CCCC6)nc5)cc4c32)C1` (centres unmarked) [Example 13], the remaining at 1 h in series [1] was determined as 56%.

For the compound `COC1CCC(n2c(=O)n(N)c3cnc4cc(F)c(-c5ccc(OCCCN(C)C)nc5)cc4c32)C1` (centres unmarked) [Example 14], the remaining at 1 h in series [1] is 66.2%.

On to `Nn1c(=O)n(C2CC2)c2c3cc(-c4ccc(OCCCN5CCCC5)nc4)c(F)cc3ncc21` [Example 19], for which, in series [1], the remaining at 1 h was 77%. In series [2], the bioavailability is 88.3% and the clearance is 35.2 mL/min/kg.

In the case of `CC(C)n1c(=O)n(N)c2cnc3cc(F)c(-c4ccc(OCCCN5C6CCC5CC6)nc4)cc3c21` [Example 27], in series [2], the bioavailability was 115% and the clearance is 59.7 mL/min/kg.

For the compound `CC(C)n1c(=O)n(N)c2cnc3cc(F)c(-c4ccc(OCCCN5CCCC5)nc4)cc3c21` [Example 3], the remaining at 1 h in series [1] stood at 86.3%. Further, in series [2], the bioavailability was found to be 95.5% and the clearance is 36.3 mL/min/kg.

`COC1CC(n2c(=O)n(N)c3cnc4cc(F)c(-c5ccc(OCCCN(C)C)nc5)cc4c32)C1` (centres unmarked) [Example 21]: in series [1], the remaining at 1 h is 79.6%.

On to `Nn1c(=O)n(C2CCOCC2)c2c3cc(-c4ccc(OCCCN5CCCC5)nc4)c(F)cc3ncc21` [Example 5], for which the remaining at 1 h in series [1] was 90.6%.

On to `Nn1c(=O)n(C2CC2)c2c3cc(-c4ccc(OCCCN5CCCCC5)nc4)c(F)cc3ncc21` [Example 18], for which, in series [2], the bioavailability is 75.9% and the clearance is 26.7 mL/min/kg.

As for `CC(C)n1c(=O)n(N)c2cnc3cc(F)c(-c4ccc(OCCCN5CC(CF)C5)nc4)cc3c21` [Example 28], the remaining at 1 h in series [1] amounted to 65.6%. For the same compound, in series [2], the bioavailability stood at 77.4% and the clearance was 7.45 mL/min/kg.

On to `COc1cc2ncc3c(c2cc1-c1ccc(OCCCN2CCCCC2)nc1)n(C(C)C)c(=O)n3N` [Example 16], for which, in series [1], the remaining at 1 h stood at 72.4%.
